This passage reports IC50 and inhibition results from patent US20030225152A1, “3-(Arylamino)methylene-1, 3-dihydro-2h-indol-2-ones as kinase inhibitors” (priority 2001, published 2003).

As a reminder, the pIC50 is the negative decadic logarithm of the IC50, by convention in mol/L. As usually defined, the inhibition is the relative decrease from the control value, in per cent.

pIC50: −log10 of the molar value. Some results are limits rather than exact numbers.

The target in assay [1] is T1, cytoplasmic domain of the human VEGF receptor (VEGFR-2) (Homo sapiens, UniProt P35968).
T1 construct: The cytoplasmic domain of the human VEGF receptor (VEGFR-2) was expressed as a Histidine-tagged fusion protein; Histidine tag
T1 sequence (P35968 786-1356): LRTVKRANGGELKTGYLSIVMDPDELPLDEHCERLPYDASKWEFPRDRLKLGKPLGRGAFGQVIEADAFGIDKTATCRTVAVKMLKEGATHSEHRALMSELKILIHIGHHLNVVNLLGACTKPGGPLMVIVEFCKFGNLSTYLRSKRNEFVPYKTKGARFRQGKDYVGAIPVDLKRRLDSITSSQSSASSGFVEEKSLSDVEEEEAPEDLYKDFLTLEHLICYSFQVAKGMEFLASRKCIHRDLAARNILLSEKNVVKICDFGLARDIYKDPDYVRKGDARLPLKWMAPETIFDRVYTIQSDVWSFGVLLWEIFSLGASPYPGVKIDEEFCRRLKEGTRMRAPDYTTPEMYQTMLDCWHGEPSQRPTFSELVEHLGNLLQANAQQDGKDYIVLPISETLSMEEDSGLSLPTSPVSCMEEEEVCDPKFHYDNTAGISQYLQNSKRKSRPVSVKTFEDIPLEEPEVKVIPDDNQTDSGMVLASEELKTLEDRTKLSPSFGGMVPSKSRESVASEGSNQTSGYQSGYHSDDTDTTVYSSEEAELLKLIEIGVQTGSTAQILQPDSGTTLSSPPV
Description: KDR Assay. The class given is biochemical. Conditions: His-VEGFR-2; 3.6 μM ATP. In outline: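 His-tagged human VEGFR-2 cytoplasmic domain from baculovirus-infected insect cells, acting on poly-Glu-Tyr (4:1)-coated plates with 3.6 μM ATP in Hepes pH 7.4 with MgCl2/MnCl2 and 5% final DMSO, 10 min at 25 °C. Phosphotyrosine detected by peroxidase-conjugated antibody ELISA at 492 nm; IC50 from blank-subtracted OD versus concentration.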

Assay [2] has as its system VEGF induced increases in intracellular calcium levels in HUVEC (human umbilical vein endothelial cells). Put plainly: VEGF Stimulated Ca++ Signal in vitro (FLIPR). It counts as cell-based. Conditions: VEGF 5 ng/mL; for pIC50: 0.01 to 10.0 μM. Put shortly: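 HUVEC loaded with Fluo-4 (45 min, 37° C.), washed, then pre-incubated 30 min with compound (10 μM single dose or 0.01–10.0 μM; 0.1% DMSO) before 5 ng/mL VEGF. Fluorescence at 516 nm read by FLIPR; IC50 from % inhibition of max-min VEGF response.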

As to `Cc1cccc2c1C(=CNc1ccc(C#N)cc1)C(=O)N2` [Example 128, 4-[(4-Methyl-2-oxo-1,2-dihydro-indol-3-ylidenemethyl)-amino]-benzonitrile], the pIC50 in assay [1] was 6.34; in assay [2] (Homo sapiens), 5.08. Besides, in assay [2] (Homo sapiens), the inhibition at 10 µM is 42.9%.
In the case of `CC(=O)Nc1ccc(NC=C2C(=O)Nc3cccc(C)c32)cc1` [Example 130, N-{4-[(4-Methyl-2-oxo-1,2-dihydro-indol-3-ylidenemethyl)-amino]-phenyl}-acetamide], the negative logarithm of the IC50 (pIC50) in assay [1] is 6.42; in assay [2], 6.24; in assay [2] (Homo sapiens), not below 6.00. Besides, the inhibition at 10 µM in assay [2] (Homo sapiens) came out at 97.3%.
In the case of `Cc1cccc2c1C(=CNc1ccc(CC(=O)O)cc1)C(=O)N2` [Example 131, {4-[(4-Methyl-2-oxo-1,2-dihydro-indol-3-ylidenemethyl)-amino]-phenyl}-acetic acid], the figures for the pIC50 in assay [1] and in assay [2] (Homo sapiens) were 6.11 and 5.81, respectively. In assay [2] (Homo sapiens), the inhibition at 10 µM came out at 96.7%.
In assay [1], `CCOC(=O)Nc1ccc(NC=C2C(=O)Nc3ccccc32)cc1O` [Example 134, {2-Hydroxy-4-[(2-oxo-1,2-dihydro-indol-3-ylidenemethyl)-amino]-phenyl}-carbamic acid ethyl ester] gave a pIC50 of 5.95. In assay [2] (Homo sapiens), the inhibition at 10 µM is 83.1% and the pIC50 was 5.13.
On to `COc1ccc(NC=C2C(=O)Nc3cccc(C)c32)c(F)c1` [Example 135, 3-[(2-Fluoro-4-methoxy-phenylamino)-methylene]-4-methyl-1,3-dihydro-indol-2-one], for which, in assay [1], the negative logarithm of the IC50 (pIC50) was 5.11. The inhibition at 10 µM in assay [2] (Homo sapiens) stood at 28%.
Consider `CSc1ccc(NC=C2C(=O)Nc3ccccc32)cc1` [Example 136, 3-[(4-Methylsulfanyl-phenylamino)-methylene]-1,3-dihydro-indol-2-one], for which the pIC50 was 6.31 in assay [1] and 5.68 in assay [2] (Homo sapiens). In addition, the inhibition at 10 µM in assay [2] (Homo sapiens) was 63.7%.
On the same counts, the results for `CSc1ccc(NC=C2C(=O)Nc3cccc(C)c32)cc1` [Example 137, 4-Methyl-3-[(4-methylsulfanyl-phenylamino)-methylene]-1,3-dihydro-indol-2-one] are 6.57, 5.78 and 65.4%.
In the same order, the values of `CSc1ccc(NC=C2C(=O)Nc3ccc(Cl)cc32)cc1` [Example 138, 5-Chloro-3-[(4-methylsulfanyl-phenylamino)-methylene]-1,3-dihydro-indol-2-one] are 6.14, 5.15 and 80.9%.
On the same counts, the results for `O=C(O)CCCc1ccc(NC=C2C(=O)Nc3ccccc32)cc1` [Example 139, 4-{4-[(2-Oxo-1,2-dihydro-indol-3-ylidenemethyl)-amino]-phenyl}-butyric acid] are 6.28, 5.79 and 99.3%.
`Cc1cccc2c1C(=CNc1ccc(CCCC(=O)O)cc1)C(=O)N2` [Example 140, 4-{4-[(4-Methyl-2-oxo-1,2-dihydro-indol-3-ylidenemethyl)-amino]-phenyl}-butyric acid] had a pIC50 in assay [1] of 6.40. Besides, the inhibition at 10 µM in assay [2] (Homo sapiens) turned out to be 96.9%.
In assay [1], `O=C(O)CCc1cccc(NC=C2C(=O)Nc3ccccc32)c1` [Example 141, 3-{3-[(2-Oxo-1,2-dihydro-indol-3-ylidenemethyl)-amino]-phenyl}-propionic acid] gave a pIC50 of 6.29. Also, in assay [2] (Homo sapiens), the inhibition at 10 µM came to 92.6% and the pIC50 is 5.53.
In assay [1], `Cc1cccc2c1C(=CNc1cccc(CCC(=O)O)c1)C(=O)N2` [Example 142, 3-{3-[(4-Methyl-2-oxo-1,2-dihydro-indol-3-ylidenemethyl)-amino]-phenyl}-propionic acid] showed a pIC50 of 6.68. In assay [2] (Homo sapiens), the inhibition at 10 µM came out at 99.3% and the pIC50 was 5.38.
